For one assay, the target named is T1, human TLR9 (Homo sapiens, UniProt Q9NR96).
T1 construct: expressed in transfected cells; host or cells: HEK293 (ATCC No. CRP-1573 [sic])
T1 sequence (Q9NR96 26-1032): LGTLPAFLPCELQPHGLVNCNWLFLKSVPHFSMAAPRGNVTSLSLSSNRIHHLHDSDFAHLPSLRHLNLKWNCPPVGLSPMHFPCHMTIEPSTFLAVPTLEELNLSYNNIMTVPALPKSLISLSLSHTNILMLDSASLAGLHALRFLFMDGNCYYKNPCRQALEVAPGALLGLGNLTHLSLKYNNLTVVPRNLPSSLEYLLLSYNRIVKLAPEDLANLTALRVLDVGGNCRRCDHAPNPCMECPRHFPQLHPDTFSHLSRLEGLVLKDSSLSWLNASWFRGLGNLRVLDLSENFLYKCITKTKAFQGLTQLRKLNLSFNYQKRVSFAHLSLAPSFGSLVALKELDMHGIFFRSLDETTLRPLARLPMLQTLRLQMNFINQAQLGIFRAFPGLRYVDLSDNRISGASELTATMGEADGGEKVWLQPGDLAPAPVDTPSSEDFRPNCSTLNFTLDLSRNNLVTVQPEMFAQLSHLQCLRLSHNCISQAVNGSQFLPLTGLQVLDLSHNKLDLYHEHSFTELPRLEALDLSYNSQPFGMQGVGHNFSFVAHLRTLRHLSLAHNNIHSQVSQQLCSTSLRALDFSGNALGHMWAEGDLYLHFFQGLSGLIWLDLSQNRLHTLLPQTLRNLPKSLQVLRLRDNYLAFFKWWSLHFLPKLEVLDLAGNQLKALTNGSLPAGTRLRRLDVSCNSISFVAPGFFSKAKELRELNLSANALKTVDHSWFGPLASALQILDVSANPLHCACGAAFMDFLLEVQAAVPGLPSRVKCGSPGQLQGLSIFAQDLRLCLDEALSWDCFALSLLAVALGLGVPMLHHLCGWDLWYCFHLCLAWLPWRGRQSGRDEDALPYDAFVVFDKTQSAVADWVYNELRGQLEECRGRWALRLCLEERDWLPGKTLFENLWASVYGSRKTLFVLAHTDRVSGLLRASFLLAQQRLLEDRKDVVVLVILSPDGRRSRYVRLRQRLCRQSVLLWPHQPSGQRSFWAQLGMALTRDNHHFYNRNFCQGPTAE
The assay is described as follows: Primary assay: HEK/TLR9 activation (NF-kB luciferase reporter, Oligo CpG 2006 stimulation). The format is cell-based. Conditions: HEK293 transfected with human TLR9 and NF-kB luciferase; compound 30 min before Oligo CpG 2006; overnight; read-out: HEK/TLR9 IC50. The source says: A. Primary Assay. The primary assay involved transfecting human embryonic kidney epithelial (HEK) cells with TLR9. More specifically, HEK293 […] cells (ATCC No. CRP-1573, American Type Culture Collection, Manassas, Va.) were transfected with pcDNA3.1D/V5-His-TOPO® plasmid (Invitrogen, Carlsbad, Calif.) encoding human TLR9 (directly inserted as a Tag polymerase-amplified PCR product) and firefly luciferase under the control of three NF-kB binding sites contained in the E-selectin-1 promoter, which was cloned into a pGL3-Enhancer Vector (Promega Corp, Madison, Wis.). Each compound was added to cells 30 min. before stimulation with Oligo CpG 2006, a synthetic phosphorothioate oligonucleotide (Hartmann et al., J Immunol. 164:1617-24 (2000)), with nucleotide sequence 5′-TCGTCGTTTTGTCGTTTTGTCGTT-3′ (SEQ ID NO:1). The cells were incubated overnight at 37° C. The luciferase substrate Steady-Glo® (Promega) was added to the wells, and luminescence was measured to determine the extent of TLR9-driven gene activation. The luminescence data was used to calculate an IC50 for each sample. The IC50 is defined as the concentration of compound that suppresses the luminescence to 50% of that observed in the absence of compound, in other words, with full stimulation.
On the technique in general: A reporter such as luciferase makes a cellular process visible.

Assay [1] relates to dissociated mouse splenocytes. The assay is described as follows: Spleen CellTiter-Glo viability assay. In kind it is cell-based. Conditions: Splenocyte, 72 hours, viability (ATP). As for the experimental part: (3) Spleen CT Glo Assay: To determine if compounds had adverse effects on living cells, dissociated mouse splenocytes were incubated with some of the compounds for 72 hours. At the end of the incubation Celliter-Glo™ reagent (Promega Corporation, Madison, Wis.) was added and luminescence was read per manufacturer's instructions. This reagent measures ATP as an indication of cell metabolism. Dead cells will not produce signal. IC50 is defined as the concentration of compound that suppresses viability to 50% of that observed in the absence of compound. The few compounds that measurably affected viability did so at concentrations far above those that affected cytokine release in response to TLR9 stimulation.
(ATP-based viability assays read luminescence as a measure of living cells.)

Regarding `c1cc(-c2nc3ccc(OCCCN4CCCCC4)cc3o2)ccc1OCCCN1CCCCC1` [Compound 30], the IC50 on human TLR9 was 0.0121 µM; in assay [1] it was greater than 10 µM.

For `c1cc(CN2CCOCC2)ccc1CNCCCOc1ccc(-c2nc3ccc(OCCCNCc4ccc(CN5CCOCC5)cc4)cc3o2)cc1` [Compound 13], the IC50 at human TLR9 is 0.0071 µM; in assay [1], 7.07 µM.

With `CCN(CC)CCNCCCOc1ccc(-c2nc3ccc(OCCCNCCN(CC)CC)cc3o2)cc1` [Compound 12], the IC50 at human TLR9 was 0.0058 µM; in assay [1], greater than 10 µM.

As to `CN(C)CCCOc1ccc(-c2nc3ccc(OCCCN(C)C)cc3o2)cc1` [Compound 2], the IC50 was 0.0154 µM at human TLR9 and greater than 10 µM in assay [1].

With `c1cc(-c2nc3ccc(OCCCN4CCC(N5CCCC5)CC4)cc3o2)ccc1OCCCN1CCC(N2CCCC2)CC1` [Compound 20], the values for the IC50 (on human TLR9; in assay [1]) were 0.0125 µM and greater than 10 µM, respectively.

Turning to `CN1CCN(c2ccc(CNCCCOc3ccc(-c4nc5ccc(OCCCNCc6ccc(N7CCN(C)CC7)cc6)cc5o4)cc3)cc2)CC1` [Compound 11], the IC50 stood at 0.0048 µM on human TLR9 and 10 µM in assay [1].

On to `CCN(CC)CCN(C)CCCOc1ccc(-c2nc3ccc(OCCCN(C)CCN(CC)CC)cc3o2)cc1` [Compound 31], for which the IC50 on human TLR9 is 0.0072 µM; in assay [1], greater than 10 µM.

For the molecule `CN(C)CCCN(C)CCCOc1ccc(-c2nc3ccc(OCCCN(C)CCCN(C)C)cc3o2)cc1` [Compound 27], the IC50 at human TLR9 worked out at 0.0034 µM; in assay [1], 8.96 µM.

For the molecule `CN1CCCN(CCCOc2ccc(-c3nc4ccc(OCCCN5CCCN(C)CC5)cc4o3)cc2)CC1` [Compound 14], the IC50 on human TLR9 is 0.0056 µM; in assay [1], greater than 10 µM.

Take `CN(C)CCN(C)CCCOc1ccc(-c2nc3ccc(OCCCN(C)CCN(C)C)cc3o2)cc1` [Compound 22]: the results for the IC50 (on human TLR9; in assay [1]) were 0.0087 µM and 7.11 µM, respectively.

`CN(C)[C@@H]1CCN(CCCOc2ccc(-c3nc4ccc(OCCCN5CC[C@@H](N(C)C)C5)cc4o3)cc2)C1` [Compound 16]: the IC50 is 0.0055 µM on human TLR9 and greater than 10 µM in assay [1].

As for `c1cc(-c2nc3ccc(OCCCN4CCCC4)cc3o2)ccc1OCCCN1CCCC1` [Compound 23], the IC50 on human TLR9 is 0.0111 µM; in assay [1] it was greater than 10 µM.

(Values after US8354400B2, “Benzoxazole compounds and methods of use” (Eisai R&D Co., Ltd., priority 2008, dated 2013).)
